Test results taken from paper PMC2228615 (The Journal of General Physiology, 1980).
pKd: −log10 of the molar value. Where two headings read alike, the source gives them in different places.

Columns and labels:
[1] = system: Na+,K+-dependent ATPase; assay type: binding, turkey; conditions: 150 mM Na+; for t1/2, observed half-time for disappearance of empty binding sites: 0.11-[…] K+, 37 C (Table I)
[2] = system: ox-brain Na+,K+-ATPase; conditions: cited from earlier work
[3] = system: human erythrocytes; conditions: similar conditions, estimated; cited from earlier work

| Structure (SMILES) | activation energy for association (Arrhenius plot of k1) ([1]; 5-37 C) [kcal/mol] | activation energy for dissociation (Arrhenius plot of k-1) ([1]; 5-37 C) [kcal/mol] | time to attain equilibrium between free and bound radioligand ([1]; 20 C or higher, 0.5 mM K+, 0.85 uM [3H]ouabain (Fig. 1)) [min] | k-1, dissociation rate constant ([1]; 37 C, 0.5 mM K+, after 1 mM nonradioactive ouabain (Fig. 2)) [min⁻¹] | t1/2, observed half-time for disappearance of empty binding sites ([1]; [3H]ouabain 1.7x10-7 M) [min] | t1/2, observed half-time for disappearance of empty binding sites ([1]; [3H]ouabain 3.2x10-7 M) [min] | t1/2, observed half-time for disappearance of empty binding sites ([1]; [3H]ouabain 8.1x10-7 M) [min] | t1/2, observed half-time for disappearance of empty binding sites ([1]; [3H]ouabain 8.1x10-8 M) [min] | activation energy for association (k1) ([2]; Na+,K+-ATPase from ox-brain cortex microsomes) [kcal/mol] | k-1, dissociation rate constant [3] | pKd ([2]; read-out: D, dissociation constant for the potassium ion-ATPase complex, partially purified ox-brain ATPase, 150 mM Na+) |
| --- | --- | --- | --- | --- | --- | --- | --- | --- | --- | --- | --- |
| C[C@@H]1O[C@@H](O[C@H]2C[C@@H](O)[C@]3(CO)[C@H]4[C@H](O)C[C@]5(C)[C@@H](C6=CC(=O)OC6)CC[C@]5(O)[C@@H]4CC[C@]3(O)C2)[C@H](O)[C@H](O)[C@H]1O [ouabain] | 29.5 | 24.2 | ≤ 15 | 0.16 | 2.2 | 1.2 | 0.49 | 5.1 | 21 to 23 | ~ 0.001 min-1 |  |
| [K+] [potassium ion] |  |  |  |  |  |  |  |  |  |  | 2.66 |
